Measured values reported in patent US10906876B2, “Tetrahydroisoquinolines as selective NADPH oxidase 2 inhibitors” (University of Pittsburgh—Of the Commonwealth System of …, priority 2013, dated 2021).

Legend:
[1] = tested on: human pulmonary artery endothelial cells (HPAEC); assay: Superoxide production of HPAEC treated with high glucose; type: cell-based; conditions: 25 mM glucose 24 hr, 25 μM compound
Procedure: (§1) Cos-Nox2, Cos-Nox1, human fibroblasts were cultured in DMEM, 10% FBS-supplemented media, human pulmonary artery endothelial cells were cultured in EBM2media containing growth factors (Lonza) and rat neonatal cardiomyocytes were cultured in DMEM/F12 (50/50) media supplemented with 5% horse serum, 100 μM BrdU and Insulin-Transferrin-Selenium (ITS, Gibco).
Superoxide (O2^•−) production from cell homogenates was calculated from the initial linear rate (over 10 min) of SOD-inhibitable cytochrome c reduction quantified at 550 nm using the extinction coefficient of 21.1 mM-1 cm-1 (Biotek Synergy 4 Hybrid Multi-Mode Microplate Reader). The oxidase assay buffer consisted of 65 mM sodium phosphate buffer (pH 7.0), 1 mM EGTA, 10 μM FAD, 1 mM MgCl2, 2 mM NaN3 and 0.2 mM cytochrome C.
Compounds 11g and 11h subsequently were tested in parenchymal cell lines where more than one Nox could be present and activated. Human pulmonary artery endothelial cells (HPAEC) were treated with high glucose (25 mM) for 24 hr in the presence or absence of the compounds. […] Under these conditions both compounds 11g and 11h attenuated the high glucose-stimulated superoxide production (FIG. 9).

[2] = tested on: human pulmonary artery endothelial cells (HPAEC); assay: ROS production of HPAEC treated with angiotensin II; type: cell-based; conditions: angiotensin II 24 hrs, 25 μM compound, preliminary data
Procedure: as §1

Bovine milk XO = target: T1, Bovine milk XO (Bos taurus, UniProt P80457); assay: Xanthine oxidase assay (Amplex Red); type: biochemical; conditions: compounds at 25 μM and 50 μM (FIG. 4)
T1 construct: Bovine milk XO (grade 1, ammonium sulfate suspension; Sigma-Aldrich); purchased Sigma-Aldrich; host or cells: bovine milk
Procedure: Bovine milk XO (grade 1, ammonium sulfate suspension; Sigma-Aldrich) was first desalted using PD-10 columns (Sephadex G-25, GE Healthcare Biosciences, Piscataway, N.J.) equilibrated in PBS. XO activity was assayed by measuring H2O2 production using the Amplex® Red assay. Reaction mixture contained: 0.02 U/mL XO, 25 mM Hepes, pH 7.4, containing 0.12 M NaCl, 3 mM KCl, 1 mM MgCl2, 0.1 mM Amplex® Red, and 0.32 U/mL of horse radish peroxidase (HRP), reaction was initiated by addition of 1 mM hypoxanthine. Fluorescence was quantified over time using a Biotek Synergy 4 Hybrid Multi-Mode Microplate Reader.
Data are expressed as % of vehicle control.

human fibroblasts = assay: PMA-stimulated ROS production by human fibroblasts; type: cell-based; conditions: 10 μM compound
Procedure: as §1
Compounds 11g and 11h also were evaluated for potential inhibitory activity in phorbol ester (PMA)-stimulated ROS production by human fibroblasts. As expected PMA, an activator of protein kinase C, stimulated superoxide production. This effect was attenuated by both compounds at a concentration of 10 μM (FIG. 11).

Nox1 hybrid system = target: T2, Nox1 hybrid system (Homo sapiens, UniProt Q9Y5S8); assay: ROS production of transiently Nox1 hybrid system-transfected Cos cells treated with PMA; type: cell-based; conditions: 10 μM compound
T2 construct: Plasmids encoding full-length human cDNAs for Nox1 (pcDNA3.1-hNox1); expressed in transfected cells; host or cells: Cos cells, transient transfection
T2 sequence (Q9Y5S8 1-564): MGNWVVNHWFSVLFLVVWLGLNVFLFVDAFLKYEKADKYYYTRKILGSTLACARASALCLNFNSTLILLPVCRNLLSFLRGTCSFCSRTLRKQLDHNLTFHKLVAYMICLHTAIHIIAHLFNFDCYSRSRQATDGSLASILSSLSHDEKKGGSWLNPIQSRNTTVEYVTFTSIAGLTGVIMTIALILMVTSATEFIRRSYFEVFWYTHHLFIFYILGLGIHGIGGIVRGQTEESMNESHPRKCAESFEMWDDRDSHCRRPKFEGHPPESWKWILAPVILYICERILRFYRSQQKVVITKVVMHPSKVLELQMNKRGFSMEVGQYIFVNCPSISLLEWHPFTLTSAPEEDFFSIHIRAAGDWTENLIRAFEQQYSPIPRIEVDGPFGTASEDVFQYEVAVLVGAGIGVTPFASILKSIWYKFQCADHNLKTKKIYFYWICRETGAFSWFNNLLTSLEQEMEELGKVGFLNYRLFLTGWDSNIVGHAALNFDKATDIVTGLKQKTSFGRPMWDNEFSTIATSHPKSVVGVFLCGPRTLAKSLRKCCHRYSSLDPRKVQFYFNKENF
Procedure: Cell transfection was carried out using Lipofectamine LTX and Plus reagent (Invitrogen, Carlsbad, Calif., USA), according to the manufacturer's instructions. COS-22 cells were transiently co-transfected with pcDNA 3.1-hNox1, pCMVsport 6-hNOXA1 and pcDNA3.1-hNoxO1 (COS-Nox1/NOXO1/NOXA1 cells) or with pcDNA3.1/Hygro-hNox4 (COS-Nox4 cells). Cells were used 24 hr after transfection. Adherent cells were harvested by incubating with 0.05% trypsin/EDTA for 5 min at 37° C. Following addition of DMEM/10% FBS to neutralize the trypsin, the cells were pelleted by centrifugation at 1100×g for 5 min at 4° C. and used for the experiments.
Since p47^phox activation is important not only for Nox2 activity but also for Nox1 hybrid system present mainly in human endothelial cells, the effect of compounds 11g and 11h on ROS production of transiently Nox2-transfected (FIG. 13) or Nox1 hybrid system-transfected Cos cells (FIG. 14) treated with phorbol ester (PMA) was evaluated.

[3] = tested on: rat neonatal cardiomyocytes; assay: ROS production of rat neonatal cardiomyocytes treated with high glucose; type: cell-based; conditions: 25 mM glucose, 25 μM compound
Procedure: as §1
To evaluate the pre-clinical potential of compounds 11g and 11h, the effects of high levels of glucose, which induce the generation of reactive oxygen species in cardiomyocytes and may contribute to the development of cardiomyopathy in diabetes, were evaluated. […] Furthermore, both compound 11g and compound 11h were able to reduce cardiomyocyte hypertrophy associated with high glucose challenge (FIG. 16).

T1 sequence (P80457 whole entry): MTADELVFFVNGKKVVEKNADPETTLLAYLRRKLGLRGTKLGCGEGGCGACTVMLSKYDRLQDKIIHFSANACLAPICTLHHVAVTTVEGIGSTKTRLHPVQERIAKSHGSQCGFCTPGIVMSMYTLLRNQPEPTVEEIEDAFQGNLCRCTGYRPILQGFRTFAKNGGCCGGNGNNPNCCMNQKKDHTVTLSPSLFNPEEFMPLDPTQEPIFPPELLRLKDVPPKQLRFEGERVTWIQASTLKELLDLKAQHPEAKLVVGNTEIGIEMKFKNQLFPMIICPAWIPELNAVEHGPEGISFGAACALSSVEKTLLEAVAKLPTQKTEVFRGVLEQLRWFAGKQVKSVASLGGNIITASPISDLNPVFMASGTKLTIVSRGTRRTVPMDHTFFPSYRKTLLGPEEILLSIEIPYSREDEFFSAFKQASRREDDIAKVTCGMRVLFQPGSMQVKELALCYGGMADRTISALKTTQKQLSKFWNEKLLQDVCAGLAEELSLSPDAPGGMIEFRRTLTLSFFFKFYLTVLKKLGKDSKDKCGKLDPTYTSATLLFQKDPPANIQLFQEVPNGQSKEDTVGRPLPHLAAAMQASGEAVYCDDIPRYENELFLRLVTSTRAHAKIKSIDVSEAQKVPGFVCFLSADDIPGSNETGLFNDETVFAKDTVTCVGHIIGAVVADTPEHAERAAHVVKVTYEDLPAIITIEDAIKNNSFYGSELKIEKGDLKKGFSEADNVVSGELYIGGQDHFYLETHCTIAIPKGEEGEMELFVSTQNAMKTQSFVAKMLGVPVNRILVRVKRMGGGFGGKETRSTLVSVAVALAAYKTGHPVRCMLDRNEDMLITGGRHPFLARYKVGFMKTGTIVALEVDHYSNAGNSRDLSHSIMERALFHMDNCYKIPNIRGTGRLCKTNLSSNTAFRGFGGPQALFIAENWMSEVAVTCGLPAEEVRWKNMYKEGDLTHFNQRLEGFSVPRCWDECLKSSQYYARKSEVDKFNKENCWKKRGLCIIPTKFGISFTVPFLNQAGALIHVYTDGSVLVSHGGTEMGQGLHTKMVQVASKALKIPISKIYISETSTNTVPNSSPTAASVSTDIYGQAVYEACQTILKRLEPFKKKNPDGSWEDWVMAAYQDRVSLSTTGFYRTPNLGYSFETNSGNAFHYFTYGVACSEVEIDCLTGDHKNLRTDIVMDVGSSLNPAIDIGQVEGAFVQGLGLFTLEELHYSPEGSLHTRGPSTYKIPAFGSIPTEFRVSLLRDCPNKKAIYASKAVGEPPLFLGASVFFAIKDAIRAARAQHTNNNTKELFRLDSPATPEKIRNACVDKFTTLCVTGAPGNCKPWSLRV

Row | SMILES | High glucose-stimulated superoxide production [1] | AngII-stimulated ROS production [2] | Effect on ROS production by xanthine oxidase (Bovine milk XO) | PMA-stimulated superoxide production (human fibroblasts) | PMA-stimulated ROS production, Nox1 hybrid system-transfected Cos cells (Nox1 hybrid system) | High glucose-dependent ROS production in rat cardiomyocytes [3]
1 | C=C(C)CC1C2c3c(Br)cccc3C(CC2(C)C)N1CCCCC (racemic) [Compound 11g, (±)-(1S,4R,9S)-5-Bromo-3,3-dimethyl-9-(2-methylallyl-10-pentyl-1,2,3,4-tetrahydro-1,4-(epiminomethano)naphthalene] | attenuated | differential effect | virtually no effect | attenuated | inhibited | ameliorated
2 | C=C(C)CC1C2c3c(Br)cccc3C(CC2(C)C)N1Cc1cccs1 (racemic) [Compound 11h, (±)-(1S,4R,9S)-5-Bromo-3,3-dimethyl-9-(2-methylallyl)-10-(thiophen-2-ylmethyl)-1,2,3,4-tetrahydro-1,4-(epiminomethano)naphthalene] | attenuated | differential effect | virtually no effect | attenuated | did not significantly inhibit | ameliorated
